Assay results published in patent publication US20200121807A1, “Anti-Cancer Agents” (UEA ENTERPRISES LIMITED, priority 2016, published 2020).

Key:
[1] = tested on: PC-3 metastatic prostate cancer cells; test: PC-3 prostate tumour xenograft, free agents, tumour weight; format: in vivo, Balb/c nude mice; details: 5 mg/kg single agent, prostate tumours
Description: (§1) Tumour weight at week 5. Columns, mean of three experiments performed in triplicate. Bars, SE. * p<0.05 versus control.
(§2) Mice and tumours were weighed.
(§3) Data are presented as the mean values of at least three independent experiments normalised to control±standard error of the mean (SE) calculated using OriginPro. Statistical significance between two groups was conducted by unpaired Student's t test. p value of <0.05 is considered statistically significant.

[2] = tested on: MDA-MB-231 metastatic triple negative breast cancer cell; test: MDA-MB-231 breast tumour xenograft, free agents, tumour weight; format: in vivo, Balb/c nude mice; details: 5 mg/kg single agent, breast tumours
Description: as §1, §2, §3

SK1 = target: T1, SK1 (Homo sapiens, UniProt Q9NYA1); test: SK1 activity by radiolabelling in PC-3 cells; format: cell-based; details: PC-3 cells treated for 48 h
T1 construct: endogenous in cells; host or cells: PC-3 cells (obtained from DSMZ)
Description: (D) PC-3 cells were treated for 48 h as indicated in figure and SK1 activity was measured by radiolabelling. Columns, points, percentage relative to the control. Data is expressed as Mean±SE (n=3). * p<0.05 versus control, ** p<0.05 versus free drug treatment (DTX+FTY). (E) Cytotoxicity of free drugs was assessed using the MTT assay (48 hr: dark shading; 72 hr: light shading; 96 hr: no shading); the final two columns showing sequential administration of docetaxel on day 1 (D1) followed by FTY720 on day 2 (D2), or administration of FTY720 on day 1 (D1) followed by docetaxel on day 2 (D2).
SK1 assay was performed using radiolabelling as previously described (Alshaker et al (2014), above, plus: Alshaker, H. et al. Sphingosine kinase 1 contributes to leptin-induced STAT3 phosphorylation through IL-6/gp130 transactivation in oestrogen receptor-negative breast cancer. Breast Cancer Res Treat 149, 59-67, doi:10.1007/s10549-014-3228-8 (2015); and Pchejetski, D. et al. The involvement of sphingosine kinase 1 in LPS-induced Toll-like receptor 4-mediated accumulation of HIF-1alpha protein, activation of ASK1 and production of the pro-inflammatory cytokine IL-6. Immunol Cell Biol 89, 268-274, doi:10.1038/icb.2010.91 (2011)), in conditions favouring SK1 activity and inhibiting SK2 activity.

[3] = in vivo; cited from earlier work
[4] = Toxicity in PC-3 tumour-bearing NSG mice (body weight, liver weight, WCC); format: in vivo; details: after 2 weeks of administration
Description: At Day 30 mice were sacrificed and liver weight measurements were performed. Liver weight was normalised to control group (healthy group no treatment). *: p<0.05 vs. control group (ANOVA). Data is expressed as Mean±SE (n=7).

T1 sequence (Q9NYA1 whole entry): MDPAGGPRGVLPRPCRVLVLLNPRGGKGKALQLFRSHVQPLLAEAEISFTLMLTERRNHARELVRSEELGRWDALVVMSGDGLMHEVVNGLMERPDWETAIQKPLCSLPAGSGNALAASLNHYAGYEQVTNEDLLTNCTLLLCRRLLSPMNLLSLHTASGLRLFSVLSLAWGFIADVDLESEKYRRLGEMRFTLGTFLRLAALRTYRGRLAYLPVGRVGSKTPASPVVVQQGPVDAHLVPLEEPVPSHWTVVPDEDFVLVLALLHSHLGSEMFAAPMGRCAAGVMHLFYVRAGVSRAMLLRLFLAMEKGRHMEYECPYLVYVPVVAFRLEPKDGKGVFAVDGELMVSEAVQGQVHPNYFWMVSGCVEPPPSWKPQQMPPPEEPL

## CC(=O)O[C@@]12CO[C@@H]1C[C@H](O)[C@@]1(C)C(=O)[C@H](O)C3=C(C)[C@@H](OC(=O)[C@H](O)[C@@H](NC(=O)OC(C)(C)C)c4ccccc4)C[C@@](O)([C@@H](OC(=O)c4ccccc4)[C@H]21)C3(C)C [docetaxel]
[1]
  tumour weight reduction, individual drug treatment: did not reduce the tumour weight significantly
[2]
  tumour weight reduction, individual drug treatment: did not reduce the tumour weight significantly
SK1
  SK1 activity: insignificant increase
[3]
  circulation half-life: ~17 h

## Oc1ccc(Nc2nc(-c3ccc(Cl)cc3)cs2)cc1 [SK1-II]
[1]
  tumour weight reduction, individual drug treatment: did not reduce the tumour weight significantly

## CCCCCCCCc1ccc(CCC(N)(CO)CO)cc1 [FTY720, fingolimod]
[4]
  white cell count: significantly reduced white cell count
[3]
  half-life: 140 to 220 h
